These results are taken from US11976083B2, “Inhibitors of peptidylarginine deiminases” (Gilead Sciences, Inc., priority 2020, dated 2024).

Each structure is given as a SMILES string.

The target of this assay is T1, human PAD4 (Homo sapiens, UniProt Q9UM07).
T1 construct: human PAD4 (NM_012387), A2-P663, was PCR amplified; His-SUMO (N, cleaved yes); made in house; host or cells: E. coli BL21(DE3)
Kind of assay: In vitro PAD4 BAEE biochemical assay. Particulars: BAEE substrate 3 mM, 5 nM PAD4, 2 mM calcium chloride; geometric mean of multiple experiments. Summed up:
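Assay was run at 25 °C using 3 mM BAEE and 5 nM human PAD4 after a 30 min compound preincubation; ammonia produced over 2 h was quantified by OPA-derived fluorescence. Full inhibition was defined by 50 µM BB-Cl-Amidine, and IC50 came from variable-slope nonlinear regression.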

T1 sequence (Q9UM07 2-663): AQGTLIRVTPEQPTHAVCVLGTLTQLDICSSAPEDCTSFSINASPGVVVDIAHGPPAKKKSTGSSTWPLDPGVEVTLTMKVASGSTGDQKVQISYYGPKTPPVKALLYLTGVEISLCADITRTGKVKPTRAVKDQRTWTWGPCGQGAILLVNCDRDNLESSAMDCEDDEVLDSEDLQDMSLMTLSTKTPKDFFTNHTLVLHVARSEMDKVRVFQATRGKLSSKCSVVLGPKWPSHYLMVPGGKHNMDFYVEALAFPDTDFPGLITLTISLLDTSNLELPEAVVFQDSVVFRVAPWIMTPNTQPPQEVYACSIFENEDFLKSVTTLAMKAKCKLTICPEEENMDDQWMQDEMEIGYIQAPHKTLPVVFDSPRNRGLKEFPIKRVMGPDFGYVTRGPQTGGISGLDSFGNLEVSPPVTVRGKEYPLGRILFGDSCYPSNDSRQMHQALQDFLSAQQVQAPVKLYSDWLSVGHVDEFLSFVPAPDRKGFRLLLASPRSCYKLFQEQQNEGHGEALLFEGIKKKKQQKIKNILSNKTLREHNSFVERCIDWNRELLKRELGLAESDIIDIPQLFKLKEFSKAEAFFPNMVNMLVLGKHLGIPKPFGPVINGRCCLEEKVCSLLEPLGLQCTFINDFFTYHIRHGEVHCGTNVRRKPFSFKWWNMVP

One may read the IC50 as the midpoint of a concentration-inhibition curve. Turning to `C[C@H]1NC(=O)[C@@H]2C[C@@]2(F)CCCCCn2c(-c3nc4cc(C(=O)N5C[C@H](N)[C@@H]6CC[C@H]5C6)cc(F)c4n3C3C[C@H]3F)cc3ccc1nc32` (some centres unmarked) [Example 952, (2~{R},5~{S},7~{S})-14-[5-[(1~{S},4~{R},5~{R})-4-amino-2-azabicyclo[3.2.1]octane-2-carbonyl]-7-fluoro-1-[(1~{R},2~{R})-2-fluorocyclopropyl]benzimidazol-2-yl]-7-fluoro-2-methyl-3,13,19-triazatetracyclo [11.5.2.0^{5,7}.0^{16,20}] icosa-1(19),14,16(20),17-tetraen-4-one], the IC50 is 0.021 µM.
The value for `COc1cc(C(=O)N2CC[C@@H](OCC3CC3)[C@@H](N)C2)cc2nc(-c3cc4ccc5nc4n3CCCCC[C@@H]3C[C@H]3C(=O)N[C@@H]5C)n(C)c12` [Example 490, (2~{R},5~{R},7~{R})-14-[5-[(3~{S},4~{R})-3-amino-4-(cyclopropylmethoxy)piperidine-1-carbonyl]-7-methoxy-1-methyl-benzimidazol-2-yl]-2-methyl-3,13,19-triazatetracyclo [11.5.2.0^{5,7}.0^{16,20}] icosa-1(19),14,16(20), 17-tetraen-4-one] was 0.086 µM; that for `C[C@H]1NC(=O)[C@H]2[C@H](CCCC(F)(F)Cn3c(-c4nc5cc(C(=O)N[C@H]6CNCC[C@@H]6F)c(F)cc5n4C)cc4ccc1nc43)C2(F)F` [Example 378, 6-fluoro-~{N}-[(3~{S},4~{S})-4-fluoro-3-piperidyl]-1-methyl-2-[(2~{R},5~{R},7~{S})-6,6,11,11-tetrafluoro-2-methyl-4-oxo-3,13,19-triazatetracyclo[11.5.2.0^{5,7}.0^{16,20}]icosa-1(19),14,16(20),17-tetraen-14-yl]benzimidazole-5-carboxamide] was 0.041 µM; that for `C[C@H]1NC(=O)c2c(Cl)cncc2CCCCCn2c(-c3nc4cc(C(=O)N[C@H]5CNCC[C@@H]5F)c(F)cc4n3C3CC3)cc3ccc1nc32` [Example 354, 2-[(2~{R})-6-chloro-2-methyl-4-oxo-3,8,16,22-tetrazatetracyclo[14.5.2.0^{5,10}.0^{19,23}]tricosa-1(22),5,7,9,17,19(23),20-heptaen-17-yl]-1-cyclopropyl-6-fluoro- ~{N}-[(3~{S},4~{S})-4-fluoro-3-piperidyl]benzimidazole-5-carboxamide] was 0.026 µM.
As to `COCCn1c(-c2cc3ccc4nc3n2CCCCC[C@@H]2C[C@H]2C(=O)N[C@@H]4C)nc2cc(C(=O)N[C@H]3CNCC[C@@H]3F)c(F)c(F)c21` [Example 559, 6,7-difluoro-~{N}-[(3~{S},4~{S})-4-fluoro-3-piperidyl]-1-(2-methoxyethyl)-2-[(2~{R},5~{R},7~ {R})-2-methyl-4-oxo-3,13,19-triazatetracyclo [11.5.2.0^{5,7}.0^{16,20}]icosa-1(19),14,16(20), 17-tetraen-14-yl] benzimidazole-5-carboxamide], the IC50 worked out at 0.047 µM.
For the molecule `COc1cc(C(=O)N[C@@H]2CNC[C@@H]2F)cc2nc(-c3cc4ccc5nc4n3CCCCCCC(C)(C)C(=O)N[C@@H]5C)n(C)c12` [Example 198, ~{N}-[(3~{R},4~{S})-4-fluoropyrrolidin-3-yl]-7-methoxy-1-methyl-2-[(11~{R})-8,8,11-trimethyl-9-oxo-1,10,19-triazatricyclo[10.5.2.0^{15,18}]nonadeca-12(19),13,15(18),16-tetraen-17-yl]benzimidazole-5-carboxamide], the IC50 is 5.96 µM.
For the molecule `COc1cc(C(=O)N2[C@H]3CC[C@@H]2[C@H](N)C3)cc2nc(-c3cc4ccc5nc4n3CCCCCCNC(=O)c3ncccc3-5)n(C)c12` [Example 91, 17-[5-[(1˜{R},2˜{R},4˜{S})-2-amino-7-azabicyclo[2.2.1]heptane-7-carbonyl]-7-methoxy-1-methyl-benzimidazol-2-yl]-6,9,16,22-tetrazatetracyclo[14.5.2.0^{2,7}.0^{19,23}]tricosa-1(22),2,4,6,17,19(23),20-heptaen-8-one], the IC50 came to 0.082 µM.
In the case of `C[C@H]1NC(=O)[C@@H]2C[C@@]2(F)CCCCCn2c(-c3nc4cc(C(=O)N[C@H]5CNCC[C@@H]5F)c(F)cc4n3C3CC3)cc3ccc1nc32` [Example 388] it was 0.012 µM.
